Measurements reported in publication PMC8175350, “Drug repurposing screens identify chemical entities for the development of COVID-19 interventions” (Nature Communications, 2021).
pEC50: −log10 of the molar value. Where “and” joins values, the source holds several entries; their conditions need not be identical. Equal entries are not always repeated. Where two headings read alike, the source gives them in different places.

Legend:
SARS-CoV-2 [1] = assay: microbe, parasite or virus in culture; format: cell-based; settings: for %infected: HeLa-ACE2, replicates n=1, n=2
[2] = Uninfected HeLa-ACE2 24 h live/dead cytotoxicity counter screen; format: cell-based, human; settings: human, uninfected HeLa-ACE2 cells, reconfirmed hits; read-out: HeLa-ACE2 Uninf. cells CC50
HeLa-ACE2 cells [3] = assay: as above; format: cell-based, human; settings: for cytotox: HeLa-ACE2
SARS-CoV-2 [4] = assay: microbe, parasite or virus in culture; format: cell-based; settings: for %infected: Calu-3, replicates n=1, n=2
SARS-CoV-2 [5] = assay: microbe, parasite or virus in culture; format: cell-based; settings: for TOA: HeLa-ACE2, replicates n=1
SARS-CoV-2 [6] = format: cell-based; settings: 72 hpi
HeLa-ACE2 cells [7] = assay: Total cell count in the HeLa-ACE2 TOA assay; format: cell-based; settings: Homo sapiens
Excerpt: Supplement 41467_2021_23328_MOESM3_ESM.xlsx, sheet "Table S1" | column: HeLa-ACE2 TOA cell count

Calu-3 cells [8] = test system: Calu-3 cells
HeLa-ACE2 cells [9] = assay: cells; settings: Homo sapiens, HeLa-ACE2, read-out: HeLa-ACE2 cell count EC50 GeoMean
Calu-3 cells [10] = assay: cells; settings: Homo sapiens
in vitro = settings: human
[11] = cited from earlier work

SMILES: O=c1nc(NO)ccn1[C@@H]1O[C@H](CO)[C@@H](O)[C@H]1O [N-hydroxycytidine]
- %infected (SARS-CoV-2 [1]; concentration log[M] -5.01818): -95.9068% and -95.703% and -94.602% and -97.3369% and -96.6026% and -97.2941%
- %infected (SARS-CoV-2 [1]; concentration log[M] -5.54106): -65.3775% and -59.3515% and -63.9298% and -52.8807% and -12.9328% and -65.202%
- %infected (SARS-CoV-2 [1]; concentration log[M] -6.01818): -30.1084% and -28.1968% and -26.2247% and 6.562% and 13.7937% and -28.207%
- %infected (SARS-CoV-2 [1]; concentration log[M] -6.42366): -20.845% and -20.4031% and 6.3056% and 22.7531% and 23.3232% and -10.0334%
- %infected (SARS-CoV-2 [1]; concentration log[M] -6.90066): -9.321% and -9.37% and 63.7122% and 19.7824% and -5.072% and -8.1%
- %infected (SARS-CoV-2 [1]; concentration log[M] -7.37799): -5.474% and -4.047% and 10.6164% and 29.7413% and 17.9839% and -7.442%
- %infected (SARS-CoV-2 [1]; concentration log[M] -7.85511): -5.151% and -0.8478% and 5.043% and 11.903% and -2.081% and 8.512%
- %infected (SARS-CoV-2 [1]; concentration log[M] -8.34746): 2.419% and 1.409% and -2.874% and 18.1053% and 10.6681% and -1.579%
- Emax (SARS-CoV-2 [1]; Severe acute respiratory syndrome coronavirus 2, HeLa-ACE2, 24 h, curve plateau at infinite concentration, read-out: HeLa-ACE2 CoV-2 Sinf Average): 100%
- pEC50 (SARS-CoV-2 [1]; Severe acute respiratory syndrome coronavirus 2, HeLa-ACE2, reconfirmed hits, read-out: HeLa-ACE2 SARS-CoV-2 EC50): 5.68
- CC50 at 24 h [2]: > 37.5 µM
- cytotox (HeLa-ACE2 cells [3]; concentration log[M] -4.40012, replicates n=1, n=2): -52.5894 and -47.3606 and -59.8571 and -45.9651 and -54.0657 and -40.7828
- cytotox (HeLa-ACE2 cells [3]; concentration log[M] -4.82681, replicates n=1, n=2): -38.4391 and -39.4796 and -38.1429 and -39.2039 and -43.0802 and -30.2326
- cytotox (HeLa-ACE2 cells [3]; concentration log[M] -5.30277, replicates n=1, n=2): -30.8534 and -12.119 and -16 and -17.6118 and -29.9408 and -19.0017
- cytotox (HeLa-ACE2 cells [3]; concentration log[M] -5.82681, replicates n=1, n=2): -4.449 and -6.9145 and -4 and -19.1385 and -7.754 and 0.2836
- cytotox (HeLa-ACE2 cells [3]; concentration log[M] -6.25414, replicates n=1, n=2): -16.849 and -13.6059 and -16.5714 and -13.1407 and -8.078 and -16.506
- cytotox (HeLa-ACE2 cells [3]; concentration log[M] -6.73049, replicates n=1, n=2): -10.2845 and 8.996 and -3.286 and -2.1265 and -9.908 and -9.472
- cytotox (HeLa-ACE2 cells [3]; concentration log[M] -7.25727, replicates n=1, n=2): 1.386 and -4.089 and -25.4286 and -12.8135 and -14.6473 and -10.7204
- cytotox (HeLa-ACE2 cells [3]; concentration log[M] -7.68403, replicates n=1, n=2): -8.534 and -5.279 and -6.286 and -2.672 and -11.8471 and 1.418
- cytotox (HeLa-ACE2 cells [3]; concentration log[M] -8.16052, replicates n=1, n=2): -5.325 and 4.535 and -3.571 and -9.869 and -22.4017 and -12.0817
- cytotox (HeLa-ACE2 cells [3]; concentration log[M] -8.59517, replicates): -2.261 and -3.197 and -3.429 and -6.707 and -1.077 and -11.9682
- HeLa-ACE2 uninfected cytotoxicity Sinf Average (HeLa-ACE2 cells [3]; curve plateau at infinite concentration): -100%
- %infected (SARS-CoV-2 [4]; concentration log[M] -5.00096): -104.882% and -104.039% and -104.073% and -87.0522% and -95.3104% and -95.1991%
- %infected (SARS-CoV-2 [4]; concentration log[M] -5.47808): -102.424% and -94.8216% and -96.2613% and -79.6455% and -88.2245% and -78.3438%
- %infected (SARS-CoV-2 [4]; concentration log[M] -6.08014): -48.1883% and -55.6504% and -62.6482% and -43.1506% and -54.549% and -44.7088%
- %infected (SARS-CoV-2 [4]; concentration log[M] -6.42922): -25.3967% and -10.7735% and -12.1745% and -21.3919% and -25.2933% and -26.102%
- %infected (SARS-CoV-2 [4]; concentration log[M] -6.90623): 2.702% and -5.189% and -14.5454% and -5.7089% and 20.5633% and -23.5818%
- %infected (SARS-CoV-2 [4]; concentration log[M] -7.50836): 7.0582% and -3.1% and 10.044% and -11.1778% and -10.264% and 16.3735%
- %infected (SARS-CoV-2 [4]; concentration log[M] -7.85886): -6.015% and 34.2889% and -1.001% and -2.481% and -24.9588% and 14.4808%
- %infected (SARS-CoV-2 [4]; concentration log[M] -8.33602): 34.4513% and -7.593% and -0.3699% and -1.01% and 8.564% and 15.1555%
- Emax (SARS-CoV-2 [4]; Severe acute respiratory syndrome coronavirus 2, Calu-3, 48 h, curve plateau at infinite concentration, read-out: Calu-3 CoV-2 Sinf Average): 102%
- pEC50 (SARS-CoV-2 [4]; Severe acute respiratory syndrome coronavirus 2, Calu-3, reconfirmed hits, read-out: Calu-3 SARS-CoV-2 EC50): 6.10
- TOA (SARS-CoV-2 [5]; concentration log[M] -5.01818): -88.6412 and -82.7703 and -80.6006
- TOA (SARS-CoV-2 [5]; concentration log[M] -5.54106): -32.1719 and -27.0134 and -25.6358
- TOA (SARS-CoV-2 [5]; concentration log[M] -6.01818): -19.1217 and -14.6661 and -4.943
- TOA (SARS-CoV-2 [5]; concentration log[M] -6.42366): 4.0678 and -1.902 and 3.9754
- TOA (SARS-CoV-2 [5]; concentration log[M] -6.90066): 9.161 and 4.654 and 6.517
- TOA (SARS-CoV-2 [5]; concentration log[M] -7.37799): 8.185 and 12.3603 and -5.097
- TOA (SARS-CoV-2 [5]; concentration log[M] -7.85511): -1.637 and 10.875 and -15.0843
- TOA (SARS-CoV-2 [5]; concentration log[M] -8.34746): 4.125 and 6.481 and 1.9398
- Emax (SARS-CoV-2 [5]; Severe acute respiratory syndrome coronavirus 2, HeLa-ACE2, 10 h, curve plateau at infinite concentration, read-out: HeLa-ACE2 TOA CoV-2 Sinf Average): 100%
- pEC50 (SARS-CoV-2 [5]; Severe acute respiratory syndrome coronavirus 2, HeLa-ACE2, read-out: HeLa-ACE2 TOA CoV-2 EC50 GeoMean): 5.39
- reduction in apical viral loads (SARS-CoV-2 [6]): > 1 log
- Emax (HeLa-ACE2 cells [7]; HeLa-ACE2, 10 h, read-out: HeLa-ACE2 TOA cell count Sinf Average): 100%
- pEC50 (HeLa-ACE2 cells [7]; HeLa-ACE2, read-out: HeLa-ACE2 TOA cell count EC50 GeoMean): < 5.02
- uninfected Calu-3 CC50 (Calu-3 cells [8]): 29.85 ×÷ 1 (n=2) μM
- Calu-3 uninfected cytotoxicity Sinf Average (Calu-3 cells [8]; human, 48 h): -100%
- pEC50 (HeLa-ACE2 cells [9]): < 5.02
- Emax (Calu-3 cells [10]; Calu-3, 48 h, read-out: Calu-3 cell count Sinf Average): 100%
- pEC50 (Calu-3 cells [10]; Calu-3, read-out: Calu-3 cell count EC50 GeoMean): 5.64
- CC50 at 48 h (in vitro; Calu-3 Uninf. cells CC50 (µM)): > 29.9 µM
- CC50 at 48 h (in vitro; Calu-3 uninfected cytotoxicity CC50 GeoMean): 29.9 µM
- Approx. t1/2 ([11]; NHP, ref [45]): 1 h
- Cmax ([11]; in vivo, po): 3.3 µM
